Experiment [1] deals with T1, E. coli L-asparaginase ansB (type II) (Escherichia coli, UniProt P00805).
T1 construct: made in house
The experiment in a line: L-asparaginase kinetics, NADH-dependent enzyme-coupled assay. Format: biochemical. The note with it: 50 μM Asn, pH 7.5, 37° C. Here is the method: (§1) The catalytic activity of the clones was determined using a spectroscopic NADH-dependent enzyme-coupled assay (Fernandez, et al. (2013) Int. J. Clin. Exp. Med. 6:478-487; Hejazi, et al. (2002) Biochem. J. 364:129-136), which measures the production of L-aspartic acid (Asp) through the 1:1 oxidation of reduced NADH. The conversion of NADH to NAD was measured spectrophotometrically as a decrease in absorbance at 340 nm at 37° C. All measurements were taken in triplicate in a buffer containing 100 mM Tris pH 7.5, 0.4 mM α-ketoglutarate and 0.4 mM NADH with 50 nM (hASNase1, hN-gC); 10 nM (gpASNase1, gN-hC, 63-hC, 64-hC, 65-hC, SA-hC) or 3 nM (ansB) enzyme. Glutamic-oxalacetic transaminase (Sigma) and malic dehydrogenase (Sigma) were helper enzymes for the coupled enzymatic reactions; 5 and 1 unit were used, respectively. Data were fit to the Michaelis-Menten equation using SigmaPlot (Systat Software Inc). Due to the cooperative nature of hASNase1, this enzyme was analyzed using the Hill equation.

The target in experiment [2] is T2, guinea pig L-asparaginase (gpASNase1, GpA), wild type, full length (GpA-FL), SEQ ID NO:1 (Cavia porcellus, UniProt H0W0T5).
T2 construct: Full length GpA (GpA-FL); made in house
T2 sequence (H0W0T5 1-565): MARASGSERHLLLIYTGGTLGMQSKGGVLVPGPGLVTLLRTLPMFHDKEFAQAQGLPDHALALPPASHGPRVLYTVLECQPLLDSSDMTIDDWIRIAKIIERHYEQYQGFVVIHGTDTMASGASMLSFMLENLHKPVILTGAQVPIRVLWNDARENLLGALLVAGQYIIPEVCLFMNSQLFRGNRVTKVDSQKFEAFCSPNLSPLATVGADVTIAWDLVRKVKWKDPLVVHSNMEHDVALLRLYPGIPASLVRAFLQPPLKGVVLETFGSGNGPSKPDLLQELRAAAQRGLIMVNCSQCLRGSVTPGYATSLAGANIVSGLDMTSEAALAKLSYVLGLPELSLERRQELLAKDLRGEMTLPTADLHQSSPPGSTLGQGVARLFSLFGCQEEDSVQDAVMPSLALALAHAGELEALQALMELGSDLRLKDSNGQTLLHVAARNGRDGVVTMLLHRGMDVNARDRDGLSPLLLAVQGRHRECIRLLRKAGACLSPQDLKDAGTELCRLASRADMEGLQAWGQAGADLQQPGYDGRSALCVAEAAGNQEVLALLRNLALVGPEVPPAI
The experiment is described as above. It is filed as biochemical. The protocol:
as §1

The target of experiment [3] is human L-asparaginase 1 (hASNase1), wild type, SEQ ID NO:2 (Homo sapiens, UniProt Q86U10). Described as above. Format: biochemical. The protocol: as §1
For experiment [4], the system named is gN-hC, chimera of guinea pig gpASNase1 N-terminal domain (residue 1-359) and human hASNase1 C-terminal domain (residue 362-573), SEQ ID NO:37. The experiment is described as above. It is filed as biochemical. The conditions noted are these: pH 7.5, 37° C.
Text: (§2) To build the clone hN-gC, the sequence corresponding to the N-terminal domain of hASNase1 (hN, residue 1-361) was amplified using the primers NdeI-hA_F1 and gpA360-367_R and the sequence corresponding to the C-terminal domain of gpASNase1 (gC, residue 360-565) was amplified using the primers hA354-361_F and gpA-BamHI_R565. To build the clone gN-hC the sequence corresponding to the N-terminal domain of gpASNase1 (gN, residue 1-359) was amplified using the primers NdeI-gpA_F1 and hA362-369_R and the sequence corresponding to the C-terminal domain of hASNase1 (hC, residue 362-573) was amplified using the primers gpA352-359_F and hA_BamHI_R573. The chimera was then constructed by PCR fusion of fragment hN and gC or gN and hC using the appropriate primers and then subsequently cloned into the pBAD and pET vectors.
as §1
(§3) Accordingly, two chimeras were generated; one, which was referred to as hN-gC and included the human N-terminal domain fused to the guinea pig C-terminal domain, and the second, which was referred to as gN-hC and included the guinea pig N-terminal domain fused to the human C-terminal domain (FIG. 1, Table 3). In vitro kinetic characterization of these chimeras validated the prediction, with hN-gC displaying kinetic properties similar to hASNase1 and gN-hC displaying kinetic properties similar to gpASNase1 (Table 4).

The test system of experiment [5] is hN-gC, chimera of human hASNase1 N-terminal domain (residue 1-361) and guinea pig gpASNase1 C-terminal domain (residue 360-565), SEQ ID NO:38. The description is as above. It is filed as biochemical. The conditions noted are these: pH 7.5, 37° C.
Text: as §2, §1, §3

Experiment [6] has as its system human L-asparaginase type I (hASNase1), SEQ ID NO:2. The conditions noted are these: in words; Karamitros & Konrad (2014); Schalk, et al. (2014); cited from earlier work.

“And” between values parts separate entries of the source, which are not always exact repeats. Identical values can stand only once.

Chain of human L-asparaginase 1 (hASNase1), wild type, SEQ ID NO:2 (Q86U10 whole entry, the tested form may be a part): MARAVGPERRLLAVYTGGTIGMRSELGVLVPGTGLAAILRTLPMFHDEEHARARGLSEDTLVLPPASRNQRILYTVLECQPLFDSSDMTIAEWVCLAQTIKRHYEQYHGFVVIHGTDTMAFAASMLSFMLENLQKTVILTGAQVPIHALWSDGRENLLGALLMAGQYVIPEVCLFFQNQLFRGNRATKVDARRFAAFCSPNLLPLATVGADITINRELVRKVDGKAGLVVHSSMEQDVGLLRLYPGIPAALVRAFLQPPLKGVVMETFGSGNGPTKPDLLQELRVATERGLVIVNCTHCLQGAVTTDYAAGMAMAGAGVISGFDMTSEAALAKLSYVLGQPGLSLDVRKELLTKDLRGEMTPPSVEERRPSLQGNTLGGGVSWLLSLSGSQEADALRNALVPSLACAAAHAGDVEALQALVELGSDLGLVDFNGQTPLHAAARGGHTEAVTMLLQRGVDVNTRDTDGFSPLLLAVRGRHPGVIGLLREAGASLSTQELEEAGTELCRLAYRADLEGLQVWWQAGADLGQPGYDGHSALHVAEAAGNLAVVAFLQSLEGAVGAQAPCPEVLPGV
T1 sequence (P00805 23-348): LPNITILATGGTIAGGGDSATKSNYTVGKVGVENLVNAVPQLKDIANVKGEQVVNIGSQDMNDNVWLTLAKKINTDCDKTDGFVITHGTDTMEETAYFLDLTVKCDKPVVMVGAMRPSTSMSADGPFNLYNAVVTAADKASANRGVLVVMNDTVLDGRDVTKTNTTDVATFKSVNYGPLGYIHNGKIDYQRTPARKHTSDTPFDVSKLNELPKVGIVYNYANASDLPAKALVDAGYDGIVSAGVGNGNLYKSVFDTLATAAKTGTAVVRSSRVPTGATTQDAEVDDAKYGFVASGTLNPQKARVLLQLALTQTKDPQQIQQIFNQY

With `NC(=O)C[C@H](N)C(=O)O` [Asn, L-asparagine], the “kobs @50 μM” value in experiment [1] was 41 ± 0.3 s⁻¹; in experiment [2] (50 μM Asn, pH 7.5, 37° C.), 20 s⁻¹ and 20 ± 1 s⁻¹; in experiment [4] (50 μM Asn) it was 14 ± 1 s⁻¹. Besides, the “kobs at 2 mM ASN” value in experiment [2] (2 mM Asn, full length GpA) amounted to 41 s⁻¹. The Michaelis-Menten constant (Km) (usually the concentration of substrate that gives half-maximal velocity) amounted to 50 ± 7 µM in experiment [2] (pH 7.5, 37° C., 10 nM enzyme); 35 µM in experiment [4] (10 nM enzyme); 3800 ± 120 µM in experiment [5] (50 nM enzyme). The turnover number (kcat) (in general, the number of substrate molecules converted per active site and unit of time at saturation) turned out to be 41 ± 2 s⁻¹ in experiment [2] (pH 7.5, 37° C., 10 nM enzyme); 17 ± 0.8 s⁻¹ in experiment [3] (Hill-equation (n = 2.1), pH 7.5, 37° C., 50 nM enzyme); 24 ± 1 s⁻¹ in experiment [4] (10 nM enzyme); 14 ± 0.5 s⁻¹ in experiment [5] (50 nM enzyme). Moreover, the Hill coefficient n result in experiment [3] (Hill-equation fit) was “*Kinetic parameters using the Hill-equation (n = 2.1)”. Also, the kcat/Km in experiment [4] is recorded as 0.7 sec^−1μM^−1; in experiment [5] it was 0.004 sec^−1μM^−1. Moreover, in experiment [6], the “Km for Asn” value is recorded as “in the millimolar range”.

The record behind these values is patent US11578315B2, “Truncated guinea pig L-asparaginase variants and methods of use” (THE BOARD OF TRUSTEES OF THE UNIVERSITY OF ILLINOIS, priority 2017, dated 2023).
